Molecules are shown by their SMILES. Like-named read-outs stand apart in the source and are kept apart here.

Data set [1] relates to human cryopreserved hepatocytes. The data set can be described thus: Metabolic stability (hepatocytes). As to conditions: for Human hepatocyte CLhep Avg: human cryopreserved hepatocytes; for clearance as % of liver blood flow: corresponding to human CLhep.
Protocol: (§4) The metabolic stability of compounds was evaluated in human cryopreserved hepatocytes (BioreclamationlVT, NY, USA) in duplicate. Test articles (or controls) were added to a 24-well incubation plate (Becton Dickinson Labware, USA) containing 0.5×10^6 hepatocytes/mL in suspension. The plate was held at 37° C. and agitated with constant orbital shaking (orbital speed at 350 rpm). At each time point (0, 5, 10, 15, 20, 30, 45, 60, 90, 120, 150 and 180 min) a Tecan Evo robot aspirated 50 μL of the incubation mixture and 100 μL of acetonitrile containing internal standard to quench the reaction. […] Samples were centrifuged (3000 rpm for 10 minutes) and the plate sealed prior to injection onto an LC-MS/MS system.
(§5) The appropriate parent/daughter ions were monitored for the test article and IS with the LC-MS/MS system. The intrinsic clearance (Clint; expressed μL/min/million cells) was determined from the first order elimination constant (k, min^−1) of test article decay and the volume of the incubation. […] The intrinsic organ CL was then converted to the hepatic clearance (CLhep) using the well-stirred model as shown below, where Qh is human hepatic blood flow.
(§6) Hepatic clearance is expressed as mL/min/kg. The hepatic clearance relates to the flow of blood through the liver that is completely cleared of the compound.
Data set [2] concerns the target GST-hRIPK1 (8-327) (Homo sapiens (Human), UniProt Q13546). The data set can be described thus: Fluorescent Polarization Binding (FP Binding) assay.
Data set [3] relates to P-gp (MDR1). The experiment in a line: MDCKII-MDR1 permeability, efflux ratio. The format is in vitro ADME. As to conditions: dog, MDCK-MDR1, pH 7.4, MDCKII-MDR1, 3 μM, read-out: ER MDR1. Here is the method: (§1) The blood brain barrier (BBB) separates circulating blood from the extracellular fluid of the central nervous system (CNS). The passive membrane permeability (Papp) and the P-gp (P-glycoprotein) substrate efflux potential were determined using the MDCKII-MDR1 cell line as an in vitro model of the effective permeability of a compound through the BBB. A bidirectional assay (Apical to Basolateral (A→B) and Basolateral to Apical (B→A)), in the absence and in the presence of GF120918 (a P-gp inhibitor) was conducted using pre-plated MDCKII-MDR1 cells (Corning HTS Transwell-96) obtained from SOLVO Biotechnology. The assay was run at 3 μM for 90 min (minutes) in triplicate using a HBSS+12.5 mM HEPES pH 7.4 transport buffer. Following incubation of samples from donor and receiver, wells were removed and measured by LC-MS/MS. Samples were extracted by protein precipitation with acetonitrile containing an appropriate internal standard (IS) having a known mass and molecular weight. The precipitate was centrifuged for 10 min at 3000 rpm (revolutions per minute). The supernatants were then collected, diluted if necessary, and injected on to the LC-MS/MS system. […] Papp (apparent permeability expressed in nm/sec [nanometer/second]) values were calculated according to the following equation: […]
(§2) Where dQ/dt is the permeability rate, C0 is the initial concentration in the donor solution (expressed as IS ratio), A and B are the surface areas of the filter (the surface area of the cell monolayer).
(§3) Monolayer efflux ratios (ER) were derived using the following equation: […]

The conditions of data set [4]: male, Sprague-Dawley Crl:CD(SD), in vivo, iv.
Protocol: (§7) The protein binding in plasma was determined using a Rapid Equilibrium Dialysis Device (Thermo Scientific RED Device) or 96-well dialyzer apparatus (HTDialysis LLC). […] If required, plasma samples were pre-incubated (2 hours at 37° C.) with diisopropyl fluorophosphate (DFP) at the final concentration of 100 μM to prevent compound degradation due to amide hydrolysis. Appropriate volumes of spiked samples along with blank phosphate buffer were added to either device and incubated at 37° C. for a total of 5 hours with agitation at 500 rpm. Following incubation, an equal aliquot of dialysed matrix (plasma or buffer) is added to an equal volume of the opposite blank matrix such that the volume of buffer to plasma are equal. Mixed matrix samples were extracted by protein precipitation using acetonitrile containing the appropriate IS. Samples were then centrifuged for 10 min at 2800 rpm. Supernatants were collected and diluted and then injected on to an HPLC-MS/MS or UPLC-MS/MS system. Samples were analyzed by monitoring the appropriate parent/daughter ion transitions for the test and control compounds. The peak area ratios were used to measure test item concentrations. The fraction unbound (Afu) was determined as the ratio of the peak area ratio in buffer divided by the peak area ratio in plasma.
(§8) The PK properties of test articles were determined in male Sprague-Dawley Crl:CD(SD) rats, male Beagle dogs and male cynomolgus monkeys. Studies were conducted to the highest standards of animal welfare in accordance with national legislation and under approval of the internal animal care and use committees.
(§9) Compounds were administered by IV bolus to animals following an overnight fast. […] The formulations were administered at dose volumes ranging from 0.5-2 mL/kg. The IV dose ranged from 0.5-1 mg/kg.
(§10) Following dose administration, 8-9 serial blood samples were collected over 24 hours. Samples were mixed with anticoagulant and placed on wet ice prior to processing. Plasma was harvested following centrifugation, extracted using protein precipitation with acetonitrile containing IS. The processed supernatant was analyzed using UPLC or LC-MS/MS using specific parent/daughter ion pairs for the test article and IS. Plasma concentrations were determined using a calibration curve prepared using known concentrations of analyte. Pharmacokinetic parameters utilizing measured concentrations were calculated using Phoenix WinNonlin. The unbound plasma clearance was calculated as the ratio of the total body clearance divided by the fraction unbound in plasma.
The conditions of data set [5]: male, cynomolgus monkey, in vivo, iv.
Protocol: as §7, §8, §9, §10
For data set [6] the following is noted: male, Beagle, in vivo, iv.
Protocol: as §7
The PK properties of test articles were determined in male Sprague-Dawley Crl:CD(SD) rats, male Beagle dogs and male cynomolgus monkeys. […]
Following dose administration, 8-9 serial blood samples were collected over 24 hours. […] The processed supernatant was analyzed using UPLC or LC-MS/MS using specific parent/daughter ion pairs for the test article and IS. Plasma concentrations were determined using a calibration curve prepared using known concentrations of analyte. Pharmacokinetic parameters utilizing measured concentrations were calculated using Phoenix WinNonlin. The unbound plasma clearance was calculated as the ratio of the total body clearance divided by the fraction unbound in plasma.
The subject of data set [7] is FADD-deficient Jurkat cells. The data set can be described thus: Cellular necroptosis assay (human TNFα-induced necrosis, CellTiter-Glo). It counts as cell-based. The settings on record: Homo sapiens, Jurkat, 48 h, TNFα 10 ng/mL, read-out: Cell IC50. Background: ATP-based viability assays read luminescence as a measure of living cells.
For data set [8], the system named is MDCKII-MDR1 cell line. The experiment in a line: MDCKII-MDR1 permeability, efflux ratio. The format is in vitro ADME. As to conditions: MDCKII-MDR1, 3 μM, 90 min. Here is the method: as §1, §2, §3
Data set [9] deals with human cryopreserved hepatocytes.
Protocol: as §4, §5, §6
Data set [10] has as its system TNF/zVAD. The settings on record: 30 mg/kg, from Table 2 of WO 2014/125444; cited from earlier work.

Sequence of GST-hRIPK1 (8-327) (Q13546 8-327): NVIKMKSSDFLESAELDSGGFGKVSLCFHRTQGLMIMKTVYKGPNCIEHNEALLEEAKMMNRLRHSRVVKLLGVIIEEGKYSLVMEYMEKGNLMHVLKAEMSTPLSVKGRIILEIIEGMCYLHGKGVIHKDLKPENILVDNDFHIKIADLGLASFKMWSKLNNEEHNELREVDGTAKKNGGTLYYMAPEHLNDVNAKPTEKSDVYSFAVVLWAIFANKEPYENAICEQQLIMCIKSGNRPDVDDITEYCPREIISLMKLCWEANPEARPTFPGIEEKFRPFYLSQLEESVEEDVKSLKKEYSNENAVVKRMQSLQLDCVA

Regarding `CN1C(=O)[C@@H](NC(=O)c2nnc(Cc3ccccc3)[nH]2)[C@H]2C[C@H]2c2ccccc21` [Example 46A, 5-benzyl-N-((2S)-4-methyl-3-oxo-1,1a,2,3,4,8b-hexahydrobenzo[b]cyclopropa[d]azepin-2-yl)-4H-1,2,4-triazole-3-carboxamide], the “Human hepatocyte CLhep Avg” value in data set [1] came to 16 mL/min/kg. Further, in data set [2], the IC50 (as a rule, the concentration that gives 50% inhibition) lay in the range of 0.1 to 1000 nM. For the same molecule, in [3], the efflux ratio at 90 min, 3 μM was found to be 16.

Turning to `C[C@H]1Oc2cccnc2N(C)C(=O)[C@H]1NC(=O)c1nnc(Cc2ccccc2)[nH]1` [Example 94, 5-benzyl-N-((2R,3S)-2,5-dimethyl-4-oxo-2,3,4,5-tetrahydropyrido[3,2-b][1,4]oxazepin-3-yl)-4H-1,2,4-triazole-3-carboxamide], in data set [4], the “Rat unbound CL” value is 44 mL/min/kg. Besides, the “Cyno unbound CL” value in [5] is given as 40 mL/min/kg. Besides, the “Human hepatocyte CLhep Avg” value in data set [1] stood at 4.9 mL/min/kg. In [2], this molecule showed an IC50 of 0.1 to 1000 nM.

`CN1C(=O)[C@@H](NC(=O)c2nnc(Cc3ccccc3)[nH]2)COc2cccnc21` [Example 42, (S)-5-benzyl-N-(5-methyl-4-oxo-2,3,4,5-tetrahydropyrido[3,2-b][1,4]oxazepin-3-yl)-4H-1,2,4-triazole-3-carboxamide]: in [4], the “Rat unbound CL” value came to 22 mL/min/kg. For the same molecule, the “Cyno unbound CL” value in data set [5] was determined as 42 mL/min/kg. Besides, the “Dog unbound CL” value in data set [6] stood at 64 mL/min/kg. Further, in data set [1], the “clearance as % of liver blood flow” value was “less than 4%” and the “Human hepatocyte CLhep Avg” value is on record as 0.8 mL/min/kg.

Take `CN1C(=O)[C@@H](NC(=O)c2nnc(Cc3ccccc3)o2)COc2ccccc21` [B, reference compound]: the IC50 in data set [7] was 0.3 nM. Moreover, in data set [1], the “Human hepatocyte CLhep Avg” value is listed as 14 mL/min/kg. Besides, the “ER MDR1” value in [8] was 1.0.

For the molecule `CN1C(=O)[C@@H](NC(=O)c2nnc(Cc3ccccc3)o2)COc2cccnc21` [Example 146, (S)-5-benzyl-N-(5-methyl-4-oxo-2,3,4,5-tetrahydropyrido[3,2-b][1,4]oxazepin-3-yl)-1,3,4-oxadiazole-2-carboxamide], the “Rat unbound CL” value in data set [4] came out at 61 mL/min/kg. In addition, in data set [5], the “Cyno unbound CL” value is given as 39 mL/min/kg. In data set [1], the “Human hepatocyte CLhep Avg” value is given as 4.2 mL/min/kg. In [2], this molecule came in with a concentration for half-maximal inhibition (IC50) of 0.1 to 1000 nM.

`O=C(N[C@@H]1C(=O)Nc2c(F)cc(F)cc2[C@@H]2C[C@H]12)c1nnc(Cc2ccccc2)[nH]1` [Example 83A, 5-benzyl-N-((1aS,2S,8bR)-5,7-difluoro-3-oxo-1,1a,2,3,4,8b-hexahydrobenzo[b]cyclopropa[d]azepin-2-yl)-4H-1,2,4-triazole-3-carboxamide]: in data set [5], the “Cyno unbound CL” value came out at 82 mL/min/kg. Further, the “Human hepatocyte CLhep Avg” value in data set [1] is on record as 1.0 mL/min/kg.

For `CN1C(=O)[C@@H](NC(=O)c2cc(C3(c4ccccc4)CC3)on2)COc2ccccc21` [Example 8, (S)—N-(5-methyl-4-oxo-2,3,4,5-tetrahydrobenzo[b][1,4]oxazepin-3-yl)-5-(1-phenylcyclopropyl)isoxazole-3-carboxamide], the “Rat unbound CL” value in data set [4] is given as 3700 mL/min/kg. Further, the “Human hepatocyte CLhep Avg” value in [9] was 19 mL/min/kg. The same molecule displayed an IC50 in data set [2] of 0.1 to 1000 nM.

Consider `CN1C(=O)[C@@H](NC(=O)c2nnc(Cc3ccccc3)[nH]2)[C@H]2C[C@H]2c2cccnc21` [Example 75A, 5-benzyl-N-((1aS,2S,8bR)-4-methyl-3-oxo-1,1a,2,3,4,8b-hexahydrocyclopropa[d]pyrido[2,3-b]azepin-2-yl)-4H-1,2,4-triazole-3-carboxamide], for which the “Rat unbound CL” value in [4] came to 91 mL/min/kg. The “Cyno unbound CL” value in data set [5] is listed as 93 mL/min/kg. For the same molecule, the “Human hepatocyte CLhep Avg” value in data set [1] was 9.1 mL/min/kg.

In the case of `CN1C(=O)[C@@H](NC(=O)c2nnc(Cc3ccccc3)o2)[C@H]2C[C@H]2c2nccnc21` [Example 177A, 5-benzyl-N-((7S,7aS,8aR)-5-methyl-6-oxo-5,6,7,7a,8,8a-hexahydrocyclopropa[d]pyrazino[2,3-b]azepin-7-yl)-1,3,4-oxadiazole-2-carboxamide], the “Rat unbound CL” value in data set [4] turned out to be 55 mL/min/kg. The “Cyno unbound CL” value in [5] is 58 mL/min/kg. In addition, the “Human hepatocyte CLhep Avg” value in data set [1] is 4.2 mL/min/kg. The molecule also showed an IC50 in data set [2] of 0.1 to 1000 nM. In addition, the efflux ratio at 90 min, 3 μM in data set [3] stood at 1.4.

Consider `CN1C(=O)[C@@H](NC(=O)c2ncn(Cc3cccc(C#N)c3)n2)COc2cccnc21` [Example 171, (S)-1-(3-cyanobenzyl)-N-(5-methyl-4-oxo-2,3,4,5-tetrahydropyrido[3,2-b][1,4]oxazepin-3-yl)-1H-1,2,4-triazole-3-carboxamide], for which the “Rat unbound CL” value in data set [4] is given as 32 mL/min/kg. In data set [9], the “Human hepatocyte CLhep Avg” value is 5.1 mL/min/kg.

As for `CN1C(=O)[C@@H](NC(=O)c2nnc(Cc3ccccc3)[nH]2)COc2ccccc21` [A, reference compound], the “inhibition of temperature loss” value in [10] is given as 93%. In addition, the “Rat unbound CL” value in [4] was 77 mL/min/kg. In addition, the IC50 in [7] was 0.5 nM. For the same molecule, the “Dog unbound CL” value in data set [6] is 240 mL/min/kg. In data set [1], the “clearance as % of liver blood flow” value is “approximately 32%” and the “Human hepatocyte CLhep Avg” value is reported as 6.8 mL/min/kg.

As to `CN1C(=O)[C@@H](NC(=O)c2nnc(C3(c4ccccc4)CC3)o2)COc2cccnc21` [Example 66, (S)—N-(5-methyl-4-oxo-2,3,4,5-tetrahydropyrido[3,2-b][1,4]oxazepin-3-yl)-5-(1-phenylcyclopropyl)-1,3,4-oxadiazole-2-carboxamide], the “Dog unbound CL” value in data set [6] turned out to be 36 mL/min/kg. In [1], the “Human hepatocyte CLhep Avg” value is listed as 6.3 mL/min/kg.

Take `[2H]C([2H])([2H])N1C(=O)[C@@H](NC(=O)c2nn(Cc3ccccc3)cc2F)[C@H]2C[C@H]2c2cc(S(C)(=O)=O)ccc21` [Example 183B, 1-benzyl-4-fluoro-N-((1aS,2S,8bR)-4-trideuteriomethyl-7-(methylsulfonyl)-3-oxo-1,1a,2,3,4,8b-hexahydrobenzo[b]cyclopropa[d]azepin-2-yl)-1H-pyrazole-3-carboxamide]: in [1], the “Human hepatocyte CLhep Avg” value was 5.3 mL/min/kg. In [2], this molecule came in with an IC50 of 0.1 to 1000 nM. Moreover, the efflux ratio at 90 min, 3 μM in data set [3] amounted to 36.

In the case of `CN1C(=O)[C@@H](NC(=O)c2cc(Cc3ccccc3)on2)CC2(CC2)c2ccccc21` [Example 9, (S)-5-benzyl-N-(1-methyl-2-oxo-1,2,3,4-tetrahydrospiro[benzo[b]azepine-5,1′-cyclopropan]-3-yl)isoxazole-3-carboxamide], in [9], the “Human hepatocyte CLhep Avg” value amounted to 19 mL/min/kg. The molecule also showed an IC50 in data set [2] of 0.1 to 1000 nM.

For `C[C@H]1Oc2cccnc2N(C)C(=O)[C@H]1NC(=O)c1nnc(Cc2ccccc2)o1` [Example 134, 5-Benzyl-N-((2R,3S)-2,5-dimethyl-4-oxo-2,3,4,5-tetrahydropyrido[3,2-b][1,4]oxazepin-3-yl)-1,3,4-oxadiazole-2-carboxamide], in [4], the “Rat unbound CL” value came to 100 mL/min/kg. The “Cyno unbound CL” value in data set [5] came out at 140 mL/min/kg. The “Human hepatocyte CLhep Avg” value in data set [1] amounted to 9.0 mL/min/kg. Moreover, in data set [2], the IC50 lay in the range of 0.1 to 1000 nM.

For the molecule `CN1C(=O)[C@@H](NC(=O)c2nnc(Cc3ccccc3)[nH]2)[C@H]2C[C@H]2c2nccnc21` [Example 119B, 5-benzyl-N-((7S,7aS,8aR)-5-methyl-6-oxo-5,6,7,7a,8,8a-hexahydrocyclopropa[d]pyrazino[2,3-b]azepin-7-yl)-4H-1,2,4-triazole-3-carboxamide], the “Rat unbound CL” value in [4] turned out to be 20 mL/min/kg. Besides, the “Cyno unbound CL” value in data set [5] is given as 26 mL/min/kg. Also, the “Human hepatocyte CLhep Avg” value in data set [1] is listed as 0 mL/min/kg. The IC50 in [2] lay within 0.1 to 1000 nM. In addition, the efflux ratio at 90 min, 3 μM in data set [3] is 18.

The record behind these values is patent US10604535B2, “Compounds, compositions and methods” (Denali Therapeutics Inc., priority 2016, dated 2020).
